Source: patent publication US20120263754A1, “Methods for Enhancing Immunogen Specific Immune Responses by Vectored Vaccines” (priority 2011, published 2012)

System: CD8 T cell response to the epitope AH1A5
Experiment: Adjuvant mixed with DC-NILV encoding AH1A5 and administered together subcutaneously; ICS/FACS
Assay type: in vivo, BALB/c mice
Details: adjuvant mixed with DC-NILV AH1A5 1 μg p24, s.c.; 4 or 20 μg GLA, 4 μg LPS; spleen cells day 10
Description: FIG. 2 illustrates the effect of two adjuvants, GLA and lipopolysaccharide (LPS), on the immune response to the CD8 T cell epitope AH1A5. The lentiviral vector encoding AH1A5 (SinVarl FUW AH1A5 (1 μg p24)) was mixed with PBS (control group), 4 μg GLA, 20 μg GLA, or 4 μg LPS and then administered subcutaneously (s.c.) to groups of BALB/C mice. After 10 days, spleen cells were isolated from animals in each group, and the CD8 T cell response was evaluated by determining the level of TNF-α and IFN-γ by intracellular cytokine staining (ICS) followed by fluorescence activated cell sorting (FACS). The values shown are the mean percentage ±SEM of CD8 T cells that are positive for IFN-γ. Data are also shown from spleen cells obtained from mice that were not injected with the lentiviral vector (no LV).
The effect of two adjuvants, GLA and lipopolysaccharide (LPS), on the immune response to the CD8 T cell epitope AH1A5 was determined. DC-NILV encoding AH1A5 (1 μg p24) was mixed with PBS (control group), 4 μg GLA, 20 μg GLA, or 4 μg lipopolysaccaride (LPS) and then administered subcutaneously (s.c.) to groups of BALB/c mice. After 10 days, spleen cells were isolated from animals in each group, and the CD8 T cell response was evaluated by determining the level of TNF-α and IFN-γ by intracellular cytokine staining (ICS) followed by fluorescence activated cell sorting (FACS). […]

With lipopolysaccharide [LPS] the “effect of coadministered adjuvant on vaccine-induced immune responses (CD8 T cells, TNF-α and IFN-γ)” value was “inhibitory effect”.
